The source of these data is patent US20250388605A1, “HETEROBIFUNCTIONAL COMPOUNDS AND METHODS OF TREATING DISEASE” (Halda Therapeutics OpCo, Inc., priority 2022, published 2025).

Assay [1] relates to T47D cells. In words: Cellular Growth Inhibition Assay for T47D Cells (CellTiter-Glo). It counts as cell-based, human. The conditions noted are these: 72 hours. The procedure: Exemplary compounds were tested for ability to inhibit the proliferation of T47D cells. T47D cells are a commercially available human breast cancer cell line.
T47D cells were purchased from American Type Cell Culture (ATCC Cat #HTB-133) and then seeded on poly-D-lysine coated, black clear-bottom 384-well plates at 3000/well in 25 μL Dulbecco's Modified Eagle Medium (DMEM) supplemented with 10% w/w Fetal bovine serum (FBS), 0.2 units/mL recombinant human insulin (Gibco Cat #12585014), and 1% w/w Pen-Strep. Pen-Strep is a commercially available mixture of penicillin G and streptomycin, which is used in mammalian cell culture media to prevent bacterial contamination. Dulbecco's Modified Eagle Medium (DMEM) supplemented with 10% w/w fetal bovine serum (FBS), 0.2 units/mL recombinant human insulin, and 1% w/w Pen-Strep is herein referred to as Treatment Medium. Following seeding of cells in the plates, the plates were spun at 300×g for 30 seconds, then equilibrated to room temperature for 30 minutes, and then deposited in a humidified tissue culture incubator maintained at 37° C. with 5% CO2.
At 24 hours after seeding of the cells, dilutions of test compound were prepared in DMSO and dissolved in Treatment Medium, to achieve a final DMSO concentration of 0.5% w/w, thereby providing the Test Compound Solution. A 25 μL aliquot of the Test Compound Solution was added to cells in the well plates. An equal volume of a solution containing DMSO and Treatment Medium was used as a negative control. Following treatment of cells with Test Compound Solution or said equal volume of a solution containing DMSO and Treatment Medium, the plates were spun at 300×g for 30 seconds, and then left in an incubator for 72 hours.
At the end of the treatment duration, cell viability was quantified with CellTiter-Glo 2.0 reagent (Promega Cat #G9243). For this purpose, plates were equilibrated to room temperature for 30 minutes, and then 25 μL of CellTiter-Glo 2.0 reagent was added to cells in the plate wells. Plates were then agitated on a shaker for two minutes at 500 rpm and subsequently incubated at room temperature for 10 minutes. Following incubation, the plates were spun at 3000×g for 30 seconds, then sealed with an optical adhesive cover, and luminescence readings were measured with an EnVision Plate Reader (Perkin Elmer).
Data was normalized using zero luminescence for baseline. A four-parameter non-linear regression curve fit was applied to dose-response data in GraphPad Prism data analysis software to determine the half-maximal growth inhibitory concentration (GI50) for each test compound.
For orientation: In ATP-based viability assays light output follows the ATP content of the culture.

Assay [2] deals with T-Rex 293 cell line SC3 cells having increased expression of androgen receptor protein due to exposure to doxycycline. As to the kind of experiment: Cellular growth inhibition, T-Rex 293 SC3 cells with doxycycline (increased androgen receptor expression), CellTiter-Glo. In kind it is cell-based. The settings on record: T-Rex 293 SC3 cells with 10 ng/mL doxycycline (increased androgen receptor expression), 72 hours, CellTiter-Glo 2.0. The gist of the method: (§1)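 Doxycycline (10 ng/mL) was either included or omitted to toggle wild-type androgen receptor expression in SC3 cells, a T-Rex 293 clone, grown in stripped-serum, phenol red-free medium. After 72 hours with compound, viable cells were quantified by CellTiter-Glo 2.0.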

The subject of assay [3] is VCaP cells. As to the kind of experiment: Cellular growth inhibition assay for VCaP cells, CellTiter-Glo. In kind it is cell-based, human. The settings on record: 72 hours. The gist of the method: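 GI50 values come from four-parameter curve fits of luminescence data normalized to a zero baseline. Compound, in medium with 0.5% DMSO, was added one day after plating and left for 72 h before CellTiter-Glo 2.0 addition.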

Assay [4] has as its system T-Rex 293 cell line SC3 cells lacking increased expression of androgen receptor protein. In words: Cellular growth inhibition, T-Rex 293 SC3 cells without doxycycline (no increased androgen receptor expression), CellTiter-Glo. In kind it is cell-based. The conditions noted are these: T-Rex 293 SC3 cells not exposed to doxycycline (no increased androgen receptor expression), 72 hours. The gist of the method: as §1

Structures are written as SMILES.

What is called GI50 is the concentration giving 50% growth inhibition. Lower therefore signals greater sensitivity of the cells. For `Cn1cc(-c2cc(C(C)(C)O)ccc2Oc2ccc(CC3CC(C4CCCN(c5ncc(C(=O)N[C@H]6C(C)(C)[C@H](Oc7ccc(C#N)c(Cl)c7)C6(C)C)cn5)C4)C3)cc2)c2cc[nH]c2c1=O` (single isomer, unassigned) [Compound I-347], the GI50 in assay [1] was less than 500 nM; in assay [2], greater than 3000 nM; in assay [3] it was less than 500 nM; in assay [4], greater than 3000 nM.
`Cn1cc(-c2cc(C(C)(C)O)ccc2Oc2ccc(CC3CC(C4CCCN(c5ncc(C(=O)N[C@H]6C(C)(C)[C@H](Oc7ccc(C#N)c(Cl)c7)C6(C)C)cn5)C4)C3)cc2)c2cc[nH]c2c1=O` (single isomer, unassigned) [Compound I-348]: the GI50 in assay [1] was less than 500 nM; in assay [2] it was less than 500 nM; in assay [3], less than 500 nM; in assay [4], greater than 3000 nM.
In the case of `Cn1cc(-c2cc(C(C)(C)O)ccc2Oc2ccc(CC3CC(C4CCCN(c5ncc(C(=O)N[C@H]6C(C)(C)[C@H](Oc7ccc(C#N)c(Cl)c7)C6(C)C)cn5)C4)C3)cc2)c2cc[nH]c2c1=O` (single isomer, unassigned) [Compound I-349], the 50% growth inhibitory concentration (GI50) in assay [1] is less than 500 nM; in assay [2] it was greater than 3000 nM; in assay [3] it was less than 500 nM; in assay [4] it was greater than 3000 nM.
On to `CCS(=O)(=O)Nc1ccc(Oc2cccc(CC3CCN(c4ncc(C(=O)N[C@H]5C(C)(C)[C@H](Oc6ccc(C#N)c(Cl)c6)C5(C)C)cn4)CC3)c2)c(-c2cn(C)c(=O)c3[nH]ccc23)c1` [Compound I-23], for which the GI50 in assay [1] (Homo sapiens), in assay [2], in assay [3] (Homo sapiens) and in assay [4] was less than 500 nM each time.
Consider `CCS(=O)(=O)Nc1ccc(Oc2cccc(OC3CCN(c4ncc(C(=O)N[C@H]5C(C)(C)[C@H](Oc6ccc(C#N)c(Cl)c6)C5(C)C)cn4)CC3)c2)c(-c2cn(C)c(=O)c3[nH]ccc23)c1` [Compound I-24], for which the GI50 in assay [1] (Homo sapiens), in assay [2], in assay [3] (Homo sapiens) and in assay [4] was less than 500 nM in each case.
Consider `CCS(=O)(=O)Nc1ccc(Oc2cccc(OCC3CCN(c4ncc(C(=O)N[C@H]5C(C)(C)[C@H](Oc6ccc(C#N)c(Cl)c6)C5(C)C)cn4)CC3)c2)c(-c2cn(C)c(=O)c3[nH]ccc23)c1` [Compound I-25], for which the GI50 in assay [1] (Homo sapiens), in assay [2], in assay [3] (Homo sapiens) and in assay [4] was less than 500 nM each time.
Regarding `CCS(=O)(=O)Nc1ccc(Oc2cccc(OC3CN(c4ncc(C(=O)N[C@H]5C(C)(C)[C@H](Oc6ccc(C#N)c(Cl)c6)C5(C)C)cn4)C3)c2)c(-c2cn(C)c(=O)c3[nH]ccc23)c1` [Compound I-30], the GI50 in assay [1] (Homo sapiens), in assay [2], in assay [3] (Homo sapiens) and in assay [4] was less than 500 nM throughout.
Turning to `CCS(=O)(=O)Nc1ccc(Oc2cccc(N(C)C3CN(c4ncc(C(=O)N[C@H]5C(C)(C)[C@H](Oc6ccc(C#N)c(Cl)c6)C5(C)C)cn4)C3)c2)c(-c2cn(C)c(=O)c3[nH]ccc23)c1` [Compound I-31], the GI50 in assay [1] (Homo sapiens) was less than 500 nM; in assay [2], 500 to 1500 nM; in assay [3] (Homo sapiens), less than 500 nM; in assay [4], less than 500 nM.
Regarding `CCS(=O)(=O)Nc1ccc(Oc2cccc(N3CCN(CC4CCN(c5ncc(C(=O)N[C@H]6C(C)(C)[C@H](Oc7ccc(C#N)c(Cl)c7)C6(C)C)cn5)CC4)CC3)c2)c(-c2cn(C)c(=O)c3[nH]ccc23)c1` [Compound I-37], the GI50 in assay [1] (Homo sapiens) was 500 to 1500 nM; in assay [2] it was less than 500 nM; in assay [3] (Homo sapiens), less than 500 nM; in assay [4] it was less than 500 nM.
As to `CCS(=O)(=O)Nc1ccc(Oc2cccc(N3CCC(CC4CCN(c5ncc(C(=O)N[C@H]6C(C)(C)[C@H](Oc7ccc(C#N)c(Cl)c7)C6(C)C)cn5)CC4)C3)c2)c(-c2cn(C)c(=O)c3[nH]ccc23)c1` (some centres unmarked) [Compound I-40], the GI50 in assay [1] (Homo sapiens) is less than 500 nM; in assay [2] it was less than 500 nM; in assay [3] (Homo sapiens), less than 500 nM; in assay [4] it was greater than 3000 nM.
As to `CCS(=O)(=O)Nc1ccc(Oc2cccc(N3CCC(N(C)C4CCN(c5ncc(C(=O)N[C@H]6C(C)(C)[C@H](Oc7ccc(C#N)c(Cl)c7)C6(C)C)cn5)CC4)C3)c2)c(-c2cn(C)c(=O)c3[nH]ccc23)c1` (some centres unmarked) [Compound I-41], the GI50 in assay [1] (Homo sapiens) is less than 500 nM; in assay [2], less than 500 nM; in assay [3] (Homo sapiens), less than 500 nM; in assay [4], 500 to 1500 nM.
Take `CCS(=O)(=O)Nc1ccc(Oc2cccc(N(C)C3CCN(C4CCN(c5ncc(C(=O)N[C@H]6C(C)(C)[C@H](Oc7ccc(C#N)c(Cl)c7)C6(C)C)cn5)CC4)C3)c2)c(-c2cn(C)c(=O)c3[nH]ccc23)c1` (some centres unmarked) [Compound I-42]: the GI50 in assay [1] (Homo sapiens), in assay [2], in assay [3] (Homo sapiens) and in assay [4] was less than 500 nM throughout.
With `CCS(=O)(=O)Nc1ccc(Oc2cccc(OC3CCN(C4CCN(c5ncc(C(=O)N[C@H]6C(C)(C)[C@H](Oc7ccc(C#N)c(Cl)c7)C6(C)C)cn5)CC4)C3)c2)c(-c2cn(C)c(=O)c3[nH]ccc23)c1` (some centres unmarked) [Compound I-43], the GI50 was less than 500 nM in assay [1] (Homo sapiens), less than 500 nM in assay [2], less than 500 nM in assay [3] (Homo sapiens) and 1500 to 3000 nM in assay [4].
Turning to `CC(=O)Nc1ccc(Oc2cccc(OCCOC3CCN(c4ncc(C(=O)N[C@H]5C(C)(C)[C@H](Oc6ccc(C#N)c(Cl)c6)C5(C)C)cn4)CC3)c2)c(-c2cn(C)c(=O)c3[nH]ccc23)c1` [Compound I-57, 2-(4-(2-(3-(4-acetamido-2-(6-methyl-7-oxo-6,7-dihydro-1H-pyrrolo [2,3-c]pyridin-4-yl)phenoxy)phenoxy)ethoxy)piperidin-1-yl)-N-((1r, 3r)-3-(3-chloro-4-cyanophenoxy)-2,2,4,4-tetramethylcyclobutyl)pyrimidine-5-carboxamide], the GI50 in assay [1] (Homo sapiens) is less than 500 nM; in assay [2] it was less than 500 nM; in assay [3] (Homo sapiens), less than 500 nM; in assay [4], 500 to 1500 nM.
Regarding `Cn1cc(-c2cc(C(C)(C)O)ccc2OC2CC3CC2CC3OC2CCN(c3ncc(C(=O)N[C@H]4C(C)(C)[C@H](Oc5ccc(C#N)c(Cl)c5)C4(C)C)cn3)CC2)c2cc[nH]c2c1=O` (some centres unmarked) [Compound I-253, N-[3-(3-chloro-4-cyano-phenoxy)-2,2,4,4-tetramethyl-cyclobutyl]-2-[4-[5-[4-(1-hydroxy-1-methyl-ethyl)-2-(6-methyl-7-oxo-1H-pyrrolo[2,3-c]pyridin-4-yl)phenoxy]norbornan-2-yl]oxy-1-piperidyl]pyrimidine-5-carboxamide], the GI50 was 500 to 1500 nM in assay [1] (Homo sapiens) and less than 500 nM in assay [3] (Homo sapiens).
In the same order, the values of `Cn1cc(-c2cc(C(C)(C)O)ccc2OC(C)(C)CN2CC(OC3CCN(c4ncc(C(=O)N[C@H]5C(C)(C)[C@H](Oc6ccc(C#N)c(Cl)c6)C5(C)C)cn4)CC3)C2)c2cc[nH]c2c1=O` [Compound I-254, N-[3-(3-chloro-4-cyano-phenoxy)-2,2,4,4-tetramethyl-cyclobutyl]-2-[4-[1-[2-[4-(1-hydroxy-1-methyl-ethyl)-2-(6-methyl-7-oxo-1H-pyrrolo[2,3-c]pyridin-4-yl)phenoxy]-2-methyl-propyl]azetidin-3-yl]oxy-1-piperidyl]pyrimidine-5-carboxamide] are greater than 3000 nM and less than 500 nM.
Regarding `Cn1cc(-c2cc(C(C)(C)O)ccc2Oc2ccc(C3(NCC4CCN(c5ncc(C(=O)N[C@H]6C(C)(C)[C@H](Oc7ccc(C#N)c(Cl)c7)C6(C)C)cn5)CC4)COC3)cc2)c2cc[nH]c2c1=O` [Compound I-256], the GI50 in assay [1] and in assay [3] was less than 500 nM in each case.
